Data as given in patent US20230276831A1, “Food/Beverage Article” (Kikkoman Corporation, priority 2020, published 2023).

Experiments:
[1] = test system: Lactobacillus rennini DSM 20253; test: Antimicrobial action of licoricidin in liquid seasoning (1), lactic acid bacteria A; type: cell-based; details: conclusion of Test Example 4; various salt concentration and various alcohol concentrations; lactic acid bacteria A to D
Experimental: Commercially available whole soybean soy sauce (produced by Kikkoman Corporation) was electrodialyzed and then concentrated under reduced pressure to obtain soy sauce at a salt concentration of 0% (w/v) and an alcohol concentration of 0% (v/v). Then, salt and/or alcohol was added to the above-mentioned obtained soy sauce, and the mixture was heat-treated to produce soy sauces at salt concentrations and alcohol concentrations shown in the following Table 5. The pHs of the soy sauces were 4.9 to 5.0. […]
Licoricidin (produced by ChemFaces) was added to each of the liquid seasonings produced in the above-mentioned (1) to concentrations of 1 ppm, 5 ppm, 10 ppm, 25 ppm, and 50 ppm. Lactic acid bacteria described in the following Table 9 were then added to 10^6 to 10^7 cells/mL and cultured at 30° C. for 7 days. After the culture, the number of lactic acid bacteria was measured using the GAM agar medium “Nissui”. Liquid seasoning to which licoricidin was not added was used as a control group, and the antimicrobial activity was evaluated in comparison with the number of lactic acid bacteria in the control group. The evaluation was performed using the criterion shown below. […]

[2] = test system: Lactobacillus acidipiscis NBRC 102163; test: Antimicrobial action of licoricidin in liquid seasoning (1), lactic acid bacteria C; type: cell-based; set-up: key: A: The bacterial count decreases to less than 10% of the bacterial count of the control group.; B: The bacterial count decreases to 10% or more and less than 50% of the bacterial count of the control group.; C: The bacterial count decreases to 50% or more and less than 100% of the bacterial count of control group.; D: The bacterial count is the same as the bacterial count of the control group
Experimental: Commercially available whole soybean soy sauce (produced by Kikkoman Corporation) was electrodialyzed and then concentrated under reduced pressure to obtain soy sauce at a salt concentration of 0% (w/v) and an alcohol concentration of 0% (v/v). Then, salt and/or alcohol was added to the above-mentioned obtained soy sauce, and the mixture was heat-treated to produce soy sauces at salt concentrations and alcohol concentrations shown in the following Table 5. The pHs of the soy sauces were 4.9 to 5.0.
Specifically, components contained in dried bonito was extracted with alcohol and water; sugar, salt, and seasonings were blended with the obtained extract; and the resulting mixture was heated to produce bonito stock. The salt concentration of the obtained bonito stock was 0.2% (w/v), the alcohol concentration was 0.15% (v/v), and the pH was 6.1.
Specifically, Koikuchi soy sauce (produced by Kikkoman Corporation), granulated sugar, potato starch, and water were blended in amounts shown in following Table 7, and the resulting mixture was heated to produce sauce. The salt concentration of the obtained sauce was 5.3% (w/v), the alcohol concentration was 0.8% (v/v), and the pH was 5.0.
Specifically, the components contained in dried bonito was extracted with water; Koikuchi soy sauce (produced by Kikkoman Corporation), sugar, and salt were blended with the obtained extract; and the resulting mixture was heated to produce Japanese seasoned soup stock. The salt concentration of the obtained Japanese seasoned soup stock was 3% (w/v), the alcohol concentration was 0.4% (v/v), and the pH was 5.5.
Licoricidin (produced by ChemFaces) was added to each of the liquid seasonings produced in the above-mentioned (1) to concentrations of 1 ppm, 5 ppm, 10 ppm, 25 ppm, and 50 ppm. Lactic acid bacteria described in the following Table 9 were then added to 10^6 to 10^7 cells/mL and cultured at 30° C. for 7 days. After the culture, the number of lactic acid bacteria was measured using the GAM agar medium “Nissui”. Liquid seasoning to which licoricidin was not added was used as a control group, and the antimicrobial activity was evaluated in comparison with the number of lactic acid bacteria in the control group. The evaluation was performed using the criterion shown below.
• A: The bacterial count decreases to less than 10% of the bacterial count of the control group. • B: The bacterial count decreases to 10% or more and less than 50% of the bacterial count of the control group. • C: The bacterial count decreases to 50% or more and less than 100% of the bacterial count of control group. • D: The bacterial count is the same as the bacterial count of the control group.

COc1c(CC=C(C)C)c(O)cc2c1C[C@H](c1ccc(O)c(CC=C(C)C)c1O)CO2 [Licoricidin, 4-[(R)-7-hydroxy-5-methoxy-6-(3-methyl-2-butenyl)chroman-3-yl]-2-(3-methyl-2-butenyl)-1,3-benzenediol]
Antimicrobial activity to various lactic acid bacteria [1]: exhibited antimicrobial activity
Antimicrobial activity ([2]; Bonito stock (salt 0.2% (w/v), alcohol 0.15% (v/v), pH 6.1), licoricidin 1 ppm): C (The bacterial count decreases to 50% or more and less than 100% of the bacterial count of control group.)
Antimicrobial activity ([2]; Bonito stock (salt 0.2% (w/v), alcohol 0.15% (v/v), pH 6.1), licoricidin 5 ppm): A (The bacterial count decreases to less than 10% of the bacterial count of the control group.)
Antimicrobial activity ([2]; Bonito stock (salt 0.2% (w/v), alcohol 0.15% (v/v), pH 6.1), licoricidin 10 ppm): A (The bacterial count decreases to less than 10% of the bacterial count of the control group.)
Antimicrobial activity ([2]; Bonito stock (salt 0.2% (w/v), alcohol 0.15% (v/v), pH 6.1), licoricidin 25 ppm): A (The bacterial count decreases to less than 10% of the bacterial count of the control group.)
Antimicrobial activity ([2]; Bonito stock (salt 0.2% (w/v), alcohol 0.15% (v/v), pH 6.1), licoricidin 50 ppm): A (The bacterial count decreases to less than 10% of the bacterial count of the control group.)
Antimicrobial activity ([2]; Japanese seasoned soup stock (salt 3% (w/v), alcohol 0.4% (v/v), pH 5.5), licoricidin 1 ppm): D
Antimicrobial activity ([2]; Japanese seasoned soup stock (salt 3% (w/v), alcohol 0.4% (v/v), pH 5.5), licoricidin 5 ppm): A (The bacterial count decreases to less than 10% of the bacterial count of the control group.)
Antimicrobial activity ([2]; Japanese seasoned soup stock (salt 3% (w/v), alcohol 0.4% (v/v), pH 5.5), licoricidin 10 ppm): A (The bacterial count decreases to less than 10% of the bacterial count of the control group.)
Antimicrobial activity ([2]; Japanese seasoned soup stock (salt 3% (w/v), alcohol 0.4% (v/v), pH 5.5), licoricidin 25 ppm): A (The bacterial count decreases to less than 10% of the bacterial count of the control group.)
Antimicrobial activity ([2]; Japanese seasoned soup stock (salt 3% (w/v), alcohol 0.4% (v/v), pH 5.5), licoricidin 50 ppm): A (The bacterial count decreases to less than 10% of the bacterial count of the control group.)
Antimicrobial activity ([2]; Sauce (salt 5.3% (w/v), alcohol 0.8% (v/v), pH 5.0), licoricidin 1 ppm): B (The bacterial count decreases to 10% or more and less than 50% of the bacterial count of the control group.)
Antimicrobial activity ([2]; Sauce (salt 5.3% (w/v), alcohol 0.8% (v/v), pH 5.0), licoricidin 5 ppm): B (The bacterial count decreases to 10% or more and less than 50% of the bacterial count of the control group.)
Antimicrobial activity ([2]; Sauce (salt 5.3% (w/v), alcohol 0.8% (v/v), pH 5.0), licoricidin 10 ppm): A (The bacterial count decreases to less than 10% of the bacterial count of the control group.)
Antimicrobial activity ([2]; Sauce (salt 5.3% (w/v), alcohol 0.8% (v/v), pH 5.0), licoricidin 25 ppm): A (The bacterial count decreases to less than 10% of the bacterial count of the control group.)
Antimicrobial activity ([2]; Sauce (salt 5.3% (w/v), alcohol 0.8% (v/v), pH 5.0), licoricidin 50 ppm): A (The bacterial count decreases to less than 10% of the bacterial count of the control group.)
Antimicrobial activity ([2]; Soy sauce, salt 0% (w/v), alcohol 0% (v/v), licoricidin 1 ppm): C (The bacterial count decreases to 50% or more and less than 100% of the bacterial count of control group.)
Antimicrobial activity ([2]; Soy sauce, salt 0% (w/v), alcohol 0% (v/v), licoricidin 5 ppm): C (The bacterial count decreases to 50% or more and less than 100% of the bacterial count of control group.)
Antimicrobial activity ([2]; Soy sauce, salt 0% (w/v), alcohol 0% (v/v), licoricidin 10 ppm): B (The bacterial count decreases to 10% or more and less than 50% of the bacterial count of the control group.)
Antimicrobial activity ([2]; Soy sauce, salt 0% (w/v), alcohol 0% (v/v), licoricidin 25 ppm): A (The bacterial count decreases to less than 10% of the bacterial count of the control group.)
Antimicrobial activity ([2]; Soy sauce, salt 0% (w/v), alcohol 0% (v/v), licoricidin 50 ppm): A (The bacterial count decreases to less than 10% of the bacterial count of the control group.)
Antimicrobial activity ([2]; Soy sauce, salt 4% (w/v), alcohol 0% (v/v), licoricidin 1 ppm): C (The bacterial count decreases to 50% or more and less than 100% of the bacterial count of control group.)
Antimicrobial activity ([2]; Soy sauce, salt 4% (w/v), alcohol 0% (v/v), licoricidin 5 ppm): A (The bacterial count decreases to less than 10% of the bacterial count of the control group.)
Antimicrobial activity ([2]; Soy sauce, salt 4% (w/v), alcohol 0% (v/v), licoricidin 10 ppm): A (The bacterial count decreases to less than 10% of the bacterial count of the control group.)
Antimicrobial activity ([2]; Soy sauce, salt 4% (w/v), alcohol 0% (v/v), licoricidin 25 ppm): A (The bacterial count decreases to less than 10% of the bacterial count of the control group.)
Antimicrobial activity ([2]; Soy sauce, salt 4% (w/v), alcohol 0% (v/v), licoricidin 50 ppm): A (The bacterial count decreases to less than 10% of the bacterial count of the control group.)
Antimicrobial activity ([2]; Soy sauce, salt 8% (w/v), alcohol 0% (v/v), licoricidin 1 ppm): D
Antimicrobial activity ([2]; Soy sauce, salt 8% (w/v), alcohol 0% (v/v), licoricidin 5 ppm): A (The bacterial count decreases to less than 10% of the bacterial count of the control group.)
Antimicrobial activity ([2]; Soy sauce, salt 8% (w/v), alcohol 0% (v/v), licoricidin 10 ppm): A (The bacterial count decreases to less than 10% of the bacterial count of the control group.)
Antimicrobial activity ([2]; Soy sauce, salt 8% (w/v), alcohol 0% (v/v), licoricidin 25 ppm): A (The bacterial count decreases to less than 10% of the bacterial count of the control group.)
Antimicrobial activity ([2]; Soy sauce, salt 8% (w/v), alcohol 0% (v/v), licoricidin 50 ppm): A (The bacterial count decreases to less than 10% of the bacterial count of the control group.)
Antimicrobial activity ([2]; Soy sauce, salt 12% (w/v), alcohol 0% (v/v), licoricidin 1 ppm): B (The bacterial count decreases to 10% or more and less than 50% of the bacterial count of the control group.)
Antimicrobial activity ([2]; Soy sauce, salt 12% (w/v), alcohol 0% (v/v), licoricidin 5 ppm): A (The bacterial count decreases to less than 10% of the bacterial count of the control group.)
Antimicrobial activity ([2]; Soy sauce, salt 12% (w/v), alcohol 0% (v/v), licoricidin 10 ppm): A (The bacterial count decreases to less than 10% of the bacterial count of the control group.)
Antimicrobial activity ([2]; Soy sauce, salt 12% (w/v), alcohol 0% (v/v), licoricidin 25 ppm): A (The bacterial count decreases to less than 10% of the bacterial count of the control group.)
Antimicrobial activity ([2]; Soy sauce, salt 12% (w/v), alcohol 0% (v/v), licoricidin 50 ppm): A (The bacterial count decreases to less than 10% of the bacterial count of the control group.)
